# Tests used:
# [1] = tested on: cigarette smoke (CS)-induced airway disease; test: In vivo smoking mouse study I (14-day cigarette smoke exposure); set-up: species or system BALB/c mice
# Procedure: A mouse model of cigarette smoke (CS)-induced airway disease was developed, in which four groups of BALB/c mice were exposed to CS (nose-only) using a cigarette smoking machine that produces a combination of side-stream and mainstream smoke from filtered research cigarettes, 7 days a week over 2 weeks.
# As part of a 14-day dose-finding study, three groups of mice were administered NMBI subcutaneously (5, 30 or 150 mg/kg) before each exposure to CS. Inflammatory cell counts in bronchoalveolar lavage (BAL), flow cytometry (FACS) analysis and cytokine analysis in BAL were carried out.
# Female BALB/c mice (Harlem laboratories, Netherlands) were used in this study. They were housed in plastic cages with absorbent bedding material and were maintained on a 12 hour daylight cycle. Food and water were provided ad libitum. Their care and the experimental protocols were approved by the Regional Ethics Committee on Animal Experiments in Umeå. Mice were 12 weeks of age when the cigarette exposure protocol started.
# Animals were subjected to inhaled CS (both side-stream and main-stream smoke). The CS exposure was performed in a microprocessor-controlled cigarette smoking machine (TE-10, Teague Enterprises, CA, USA) that produces smoke from research cigarettes (1R5F, University of Kentucky, Lexington, Ky., USA).
# Cigarettes are automatically loaded into a wheel, lit, puffed and ejected. Each cigarette was smoked for 10 minutes and the airflow through the machine was set to 12 L/min. Cigarettes were stored at −20° C. until needed. Mice were subjected to 4 cigarettes every 10 minutes×3 (i.e. 12 cigarettes over 30 minutes), once a day, 7 days a week, over two weeks. The smoke was transferred into a smoke tower (EMMS, UK) providing equal and simultaneous exposure to the CS.
# Mice were placed into plastic chambers and subjected to CS by “nose-only” inhalation. Control mice were handled every day and breathed room-air, but were not taken out of their cages.
# Accordingly, the 5 treatment groups are as follows: • 1. Daily exposure to clean air (Placebo Group) • 2. Daily exposure to CS (CS-Exposed Placebo Group) • 3. Daily exposure to CS; treated with NBMI at a 5 mg/kg dose (NBMI 5 mg/kg Group) • 4. Daily exposure to CS; treated with NBMI at a 30 mg/kg dose (NBMI 30 mg/kg Group) • 5. Daily exposure to CS; treated with NBMI at a 150 mg/kg dose (NBMI 150 mg/kg Group)
# On Day 15, mice were exsanguinated and subjected to bronchoalveolar lavage (BAL). The lungs were lavaged four times via the tracheal tube with a total volume of 1 mL+3×1 mL Ca^2+/Mg^2+ free Hanks' balanced salt solution (HBSS, Sigma-Aldrich, Steinheim, Germany).
# The BAL fluid was then immediately centrifuged (10 minutes, 4° C., 1750 rpm). After removing the supernatant until further analysis, the cell pellet was re-suspended and then diluted with 0.5 mL PBS. Leukocytes were counted manually in a hemocytometer so that 20,000 cells could be loaded and centrifuged using a Cytospin® centrifuge (Shandon® cytospin 3 cyto-centrifuge, cell preparation system).
# Cytocentrifuged preparations were stained with May-Grünwald-Giemsa reagent and differential cell counts of pulmonary inflammatory cells (macrophages, neutrophils, lymphocytes, and eosinophils) were made using standard morphological criteria and counting 300 cells per cytospin preparation.
# Inflammatory mediators in BAL and serum were analyzed for the presence of interleukin (IL)-1α, IL-1β, IL-2, IL-3, IL-4, IL-5, IL-6, IL-9, IL-10, IL-12p40, IL-12p70, IL-13, IL17, Eotaxin, G-CSF, INFγ, GM-CSF, KC, MCP-1, MIP-1α, MIP-Iβ, RANTES and TNFα. All cytokine analyses were performed simultaneously with a multiplex kit (BioPlex™ Pro Mouse Cytokine 23-plex panel) according to the manufacturer's instructions (Bio-Rad) and analyzed on a Bio-Plex™ system (Luminex Bio-Plex™ 200 System, Bio-Rad, Hercules, Calif.).
# Leukocytes from BAL were analyzed with flow cytometry using a BD FACSort™ (Becton Dickinson, San Jose, Calif.). […]
# [2] = Ascorbate depletion assay, 9,10-PQ-sponsored oxidation, recycling of DHA; settings: 9,10-PQ model, 200 μM added at 60 minutes
# Procedure: The kinetics of ascorbate oxidation, sponsored by both 1 μM 9,10-PQ and 2 μM copper sulphate (CuSO4), was examined using the ascorbate depletion assay (Kelly et al, Res. Rep. Health Eff. Inst., 163, 3 (2011). 9,10-PQ was employed so that the action of NBMI could be examined in isolation of its chelation properties.
# All experiments were performed in triplicate in UV 96 well flat-bottomed plates (Greiner bio-one) at a final volume of 200 μL. Exposures were initiated by the addition of 20 μL of a concentrated stock of ascorbate (2 mM) into each well containing 160 μL of Chelex-100 resin treated water (containing 10% DMSO), plus either 10 μL of water, CuSO4 stock solution at 4 mM or 9,10-PQ stock solution at 2 mM, and 10 μL of NMBI (4 mM and […]).
# All solutions were prepared in Chelex-100 resin treated water (containing 10% DMSO). This yielded final concentrations in the wells of […], 2 μM CuSO4, or 1 μM 9,10-PQ and between 10 and 200 μM of NBMI.
# Immediately prior to the addition of the ascorbate to each assay well, the plate was pre-incubated for 10 minutes at 37° C. in a plate reader (Spectra Max 190). During the exposure, the plate was maintained at this temperature. After addition of ascorbate, the concentration remaining in each well was monitored every 2 minutes for a period of two hours by measuring the absorbance at 265 nm. The ascorbate concentration was determined with reference to a standard curve, with the rate of ascorbate oxidation determined by performing a linear regression through the initial part of a concentration verses time plot using Microcal Software Limited's OriginLab (version 5.0). This was performed for each of the triplicates and the rate of ascorbate depletion was finally expressed as mean mol s 1×10^−9 depletion of ascorbate±standard deviation.
# For the experiments in which the impact of adding NBMI to the ascorbate was measured, CuSO4 and 9,10-PQ depletion assays were examined later in the time course. The plates were ran with 190 μL only for the first 55-60 minutes, after which they were removed from the plate reader and 10 μL of either the NMBI or the known reducing agent, DTT stock solution, or water was added to each well. The plate was then returned to the plate reader and the absorbance at 265 nm monitored for a further 60 minutes.
# The immediate increase in the measured ascorbate concentrations was determined and is referred to as the ‘jump’, as a measure of immediate recycling capacity. The sustained ‘increase’ over the remaining 60 minutes of the incubation was also determined.
compound,measurement,setting,value
"O=C(NCCS)c1cccc(C(=O)NCCS)c1 [NBMI, N,N-bis-2-mercaptoethyl isophthalamide]",MIP-1α levels in BAL vs CS-Exposed Placebo Group,"[1]; 5 mg/kg s.c., p<0.05",lowered
same,IL-10 level in serum,[1]; 30 mg/kg s.c.,increased levels
same,Eotaxin level in serum vs CS-Exposed Placebo Group,[1]; 150 mg/kg s.c.,significantly lowered levels
same,IL-1β level in serum vs CS-Exposed Placebo Group,[1]; 150 mg/kg s.c.,significantly lowered levels
same,IL-3 level in serum vs CS-Exposed Placebo Group,[1]; 150 mg/kg s.c.,significantly lowered levels
same,IL-6 level in serum vs CS-Exposed Placebo Group,[1]; 150 mg/kg s.c.,significantly lowered levels
same,MIP-1α level in serum vs CS-Exposed Placebo Group,[1]; 150 mg/kg s.c.,significantly lowered levels
same,RANTES level in serum vs CS-Exposed Placebo Group,[1]; 150 mg/kg s.c.,significantly lowered levels
same,wounds at injection site,"[1]; 150 mg/kg s.c., 14 days",established wounds in the neck
same,ulceration,"[1]; 5 and 30 mg/kg s.c., 14 days",no signs of ulceration
same,weight change from Day 1 to Day 15,"[1]; CS-exposed, regardless of dose of NBMI",lost weight significantly
same,final weight,"[1]; Day 15, 5 mg/kg s.c., CS-exposed, vs CS-exposed 20.3±0.3 g, p<0.05",19.5 ± 0.3 g
same,neutrophils in BAL vs mice just exposed to CS,"[1]; Day 15, 30 mg/kg s.c.",significantly lower numbers of neutrophils
same,neutrophils in BAL vs mice just exposed to CS,"[1]; Day 15, 150 mg/kg s.c.",significantly lower numbers of neutrophils
same,CD4 cells and CD8 cells in BAL fluid,"[1]; all groups (5, 30, 150 mg/kg)",no significant differences
same,immediate rebound increase in ascorbate,[2],42.8 µM
same,rate of ascorbate oxidation after addition,[2],reduced relative to the first 60 minute period
